Measured values from ChEMBL document CHEMBL4507259 (2021).

Columns and labels:
[1] = biological target: Cannabinoid receptor 1 (Homo sapiens) (UniProt P21554); experiment: CB1 (h) CEREP ligand profiling; conditions: filed as agonist, Compound concentration 10.0 uM
[2] = biological target: Ca2+ channel (L, diltiazem site) (benzothiazepines); voltage-gated L-type calcium channel (family) (Homo sapiens, UniProt O60840+Q01668+Q13698+Q13936); experiment: Ca2+ channel (L, diltiazem site) (benzothiazepines) CEREP ligand profiling; format: protein assay; conditions: compound concentration 10 uM
[3] = biological target: Motilin receptor (Homo sapiens) (UniProt O43193); experiment: motilin (h) CEREP ligand profiling; conditions: filed as agonist, Compound concentration 10.0 uM
Chain of Motilin receptor (Homo sapiens) (O43193 whole entry): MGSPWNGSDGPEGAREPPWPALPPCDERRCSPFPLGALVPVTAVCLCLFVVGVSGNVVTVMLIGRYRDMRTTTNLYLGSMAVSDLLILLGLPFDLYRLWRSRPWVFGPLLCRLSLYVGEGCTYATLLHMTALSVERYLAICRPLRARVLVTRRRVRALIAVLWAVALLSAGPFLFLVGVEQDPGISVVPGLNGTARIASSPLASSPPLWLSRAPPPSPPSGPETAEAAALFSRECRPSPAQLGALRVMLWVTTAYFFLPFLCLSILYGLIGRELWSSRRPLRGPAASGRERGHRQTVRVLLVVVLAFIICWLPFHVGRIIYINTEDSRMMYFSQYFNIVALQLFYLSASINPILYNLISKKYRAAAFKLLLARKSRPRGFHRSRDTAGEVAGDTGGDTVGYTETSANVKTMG

[4] = biological target: Sodium/potassium-transporting ATPase (Homo sapiens) (UniProt P05023+P14415+P05026+P50993+P54709+P13637+Q13733+P54710); experiment: ATPase (Na+/K+) CEREP ligand profiling; format: protein-complex assay; conditions: Compound concentration 10.0 uM
[5] = test system: Tyrosine-protein kinase ABL1 (Homo sapiens), P00519 [M351T]; conditions: Compound concentration 1000.0 nM
[6] = biological target: Activin receptor type-1-like (Homo sapiens) (UniProt P37023); conditions: Compound concentration 1000.0 nM
[7] = biological target: Protein-tyrosine kinase 6 (Homo sapiens) (UniProt Q13882); conditions: Compound concentration 1000.0 nM
[8] = biological target: Calcium/calmodulin-dependent protein kinase type 1 (Homo sapiens) (UniProt Q14012); conditions: Compound concentration 1000.0 nM
[9] = biological target: Cyclin-dependent kinase 3 (Homo sapiens) (UniProt Q00526); conditions: Compound concentration 1000.0 nM
[10] = biological target: Casein kinase I isoform gamma-2 (Homo sapiens) (UniProt P78368); conditions: Compound concentration 1000.0 nM
Chain of Casein kinase I isoform gamma-2 (Homo sapiens) (P78368 whole entry, looked up, canonical isoform): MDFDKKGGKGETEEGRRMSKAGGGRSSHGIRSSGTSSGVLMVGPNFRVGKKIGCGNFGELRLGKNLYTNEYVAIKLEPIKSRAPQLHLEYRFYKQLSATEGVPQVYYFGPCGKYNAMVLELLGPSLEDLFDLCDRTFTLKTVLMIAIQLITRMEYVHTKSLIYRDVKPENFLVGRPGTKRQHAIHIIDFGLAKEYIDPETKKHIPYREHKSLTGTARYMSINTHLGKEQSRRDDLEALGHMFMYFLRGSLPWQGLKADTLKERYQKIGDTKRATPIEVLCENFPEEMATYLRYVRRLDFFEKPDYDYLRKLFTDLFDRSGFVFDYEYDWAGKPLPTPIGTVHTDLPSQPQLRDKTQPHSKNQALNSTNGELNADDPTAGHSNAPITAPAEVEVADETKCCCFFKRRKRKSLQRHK

[11] = test system: Epidermal growth factor receptor (Homo sapiens), P00533 [G719S]; conditions: Compound concentration 1000.0 nM
[12] = test system: Epidermal growth factor receptor (Homo sapiens), P00533 [UNDEFINED MUTATION]; conditions: Compound concentration 1000.0 nM
[13] = biological target: Ephrin type-A receptor 6 (Homo sapiens) (UniProt Q9UF33); conditions: Compound concentration 1000.0 nM
Chain of Ephrin type-A receptor 6 (Homo sapiens) (Q9UF33 whole entry): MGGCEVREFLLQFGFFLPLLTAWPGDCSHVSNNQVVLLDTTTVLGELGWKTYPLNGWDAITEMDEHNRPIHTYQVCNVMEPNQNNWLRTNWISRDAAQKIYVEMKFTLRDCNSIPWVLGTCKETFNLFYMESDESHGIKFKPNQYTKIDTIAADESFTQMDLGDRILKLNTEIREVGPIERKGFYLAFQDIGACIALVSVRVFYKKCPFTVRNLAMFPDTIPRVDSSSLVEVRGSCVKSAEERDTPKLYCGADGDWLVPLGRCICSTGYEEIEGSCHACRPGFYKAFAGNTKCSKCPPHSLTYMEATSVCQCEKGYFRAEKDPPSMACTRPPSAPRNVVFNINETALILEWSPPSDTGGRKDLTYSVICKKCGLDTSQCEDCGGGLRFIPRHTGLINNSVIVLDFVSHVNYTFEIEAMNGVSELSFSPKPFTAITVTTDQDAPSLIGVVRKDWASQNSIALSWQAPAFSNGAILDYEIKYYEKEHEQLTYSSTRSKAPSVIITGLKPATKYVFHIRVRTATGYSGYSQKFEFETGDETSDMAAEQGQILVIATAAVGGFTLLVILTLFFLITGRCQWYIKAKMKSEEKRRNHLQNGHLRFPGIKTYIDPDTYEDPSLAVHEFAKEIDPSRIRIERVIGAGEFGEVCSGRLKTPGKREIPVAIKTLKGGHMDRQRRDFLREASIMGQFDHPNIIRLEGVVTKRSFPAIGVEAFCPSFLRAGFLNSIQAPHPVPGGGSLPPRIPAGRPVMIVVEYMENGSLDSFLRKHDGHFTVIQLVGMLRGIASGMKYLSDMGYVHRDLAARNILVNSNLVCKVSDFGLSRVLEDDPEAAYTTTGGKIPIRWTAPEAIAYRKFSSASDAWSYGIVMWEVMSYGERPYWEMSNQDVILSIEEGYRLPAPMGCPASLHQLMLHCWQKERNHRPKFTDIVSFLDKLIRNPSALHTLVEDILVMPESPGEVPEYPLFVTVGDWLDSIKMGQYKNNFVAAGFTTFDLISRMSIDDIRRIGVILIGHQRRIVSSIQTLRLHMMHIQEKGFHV

[14] = biological target: Ephrin type-B receptor 4 (Homo sapiens) (UniProt P54760); conditions: Compound concentration 1000.0 nM
Chain of Ephrin type-B receptor 4 (Homo sapiens) (P54760 whole entry): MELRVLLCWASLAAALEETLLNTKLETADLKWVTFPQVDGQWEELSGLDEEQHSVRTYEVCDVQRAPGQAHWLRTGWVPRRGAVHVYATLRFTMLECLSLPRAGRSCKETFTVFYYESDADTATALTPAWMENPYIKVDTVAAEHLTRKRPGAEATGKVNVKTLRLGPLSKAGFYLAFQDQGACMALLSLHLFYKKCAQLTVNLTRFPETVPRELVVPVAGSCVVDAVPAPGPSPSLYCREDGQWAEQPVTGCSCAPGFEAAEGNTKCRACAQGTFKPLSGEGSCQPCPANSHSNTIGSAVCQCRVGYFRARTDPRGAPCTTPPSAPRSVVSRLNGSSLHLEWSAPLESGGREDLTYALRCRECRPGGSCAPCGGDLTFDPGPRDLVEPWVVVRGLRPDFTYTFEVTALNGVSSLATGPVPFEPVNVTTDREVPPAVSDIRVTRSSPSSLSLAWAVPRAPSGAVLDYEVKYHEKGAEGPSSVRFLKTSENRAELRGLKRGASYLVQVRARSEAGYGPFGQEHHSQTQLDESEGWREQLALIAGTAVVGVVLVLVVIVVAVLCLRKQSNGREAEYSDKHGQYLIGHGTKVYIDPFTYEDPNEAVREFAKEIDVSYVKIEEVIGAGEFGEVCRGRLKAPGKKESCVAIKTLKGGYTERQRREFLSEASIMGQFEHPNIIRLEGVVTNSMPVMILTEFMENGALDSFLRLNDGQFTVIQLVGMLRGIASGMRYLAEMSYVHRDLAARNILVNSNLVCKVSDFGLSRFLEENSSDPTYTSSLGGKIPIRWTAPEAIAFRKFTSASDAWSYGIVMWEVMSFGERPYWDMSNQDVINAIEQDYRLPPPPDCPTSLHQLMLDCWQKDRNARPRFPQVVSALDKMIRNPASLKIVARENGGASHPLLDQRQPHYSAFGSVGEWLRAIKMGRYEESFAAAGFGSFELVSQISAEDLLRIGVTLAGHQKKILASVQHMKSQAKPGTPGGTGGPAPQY

[15] = biological target: Mitogen-activated protein kinase 7 (Homo sapiens) (UniProt Q13164); conditions: Compound concentration 1000.0 nM
[16] = test system: Receptor-type tyrosine-protein kinase FLT3 (Homo sapiens), P36888 [D835V]; conditions: Compound concentration 1000.0 nM
[17] = biological target: Tyrosine-protein kinase FRK (Homo sapiens) (UniProt P42685); conditions: Compound concentration 1000.0 nM
Chain of Tyrosine-protein kinase FRK (Homo sapiens) (P42685 whole entry): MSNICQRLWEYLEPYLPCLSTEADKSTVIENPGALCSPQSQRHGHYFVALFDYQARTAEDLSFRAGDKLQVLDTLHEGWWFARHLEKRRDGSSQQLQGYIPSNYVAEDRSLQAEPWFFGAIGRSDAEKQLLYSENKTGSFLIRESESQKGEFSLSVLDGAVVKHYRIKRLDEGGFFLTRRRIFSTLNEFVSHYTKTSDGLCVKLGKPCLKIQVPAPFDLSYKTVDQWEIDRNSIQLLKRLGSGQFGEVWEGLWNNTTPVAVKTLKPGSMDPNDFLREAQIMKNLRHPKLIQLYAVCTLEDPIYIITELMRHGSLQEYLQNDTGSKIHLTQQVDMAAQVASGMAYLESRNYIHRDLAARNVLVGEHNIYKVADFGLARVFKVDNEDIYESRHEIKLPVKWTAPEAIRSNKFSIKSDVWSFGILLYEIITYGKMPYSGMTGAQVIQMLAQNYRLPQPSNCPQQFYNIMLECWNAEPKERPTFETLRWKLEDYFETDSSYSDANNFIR

[18] = biological target: Serine/threonine-protein kinase haspin (Homo sapiens) (UniProt Q8TF76); conditions: Compound concentration 1000.0 nM
[19] = biological target: Dual specificity mitogen-activated protein kinase kinase 4 (Homo sapiens) (UniProt P45985); conditions: Compound concentration 1000.0 nM
[20] = biological target: Maternal embryonic leucine zipper kinase (Homo sapiens) (UniProt Q14680); conditions: Compound concentration 1000.0 nM
Chain of Maternal embryonic leucine zipper kinase (Homo sapiens) (Q14680 whole entry, looked up): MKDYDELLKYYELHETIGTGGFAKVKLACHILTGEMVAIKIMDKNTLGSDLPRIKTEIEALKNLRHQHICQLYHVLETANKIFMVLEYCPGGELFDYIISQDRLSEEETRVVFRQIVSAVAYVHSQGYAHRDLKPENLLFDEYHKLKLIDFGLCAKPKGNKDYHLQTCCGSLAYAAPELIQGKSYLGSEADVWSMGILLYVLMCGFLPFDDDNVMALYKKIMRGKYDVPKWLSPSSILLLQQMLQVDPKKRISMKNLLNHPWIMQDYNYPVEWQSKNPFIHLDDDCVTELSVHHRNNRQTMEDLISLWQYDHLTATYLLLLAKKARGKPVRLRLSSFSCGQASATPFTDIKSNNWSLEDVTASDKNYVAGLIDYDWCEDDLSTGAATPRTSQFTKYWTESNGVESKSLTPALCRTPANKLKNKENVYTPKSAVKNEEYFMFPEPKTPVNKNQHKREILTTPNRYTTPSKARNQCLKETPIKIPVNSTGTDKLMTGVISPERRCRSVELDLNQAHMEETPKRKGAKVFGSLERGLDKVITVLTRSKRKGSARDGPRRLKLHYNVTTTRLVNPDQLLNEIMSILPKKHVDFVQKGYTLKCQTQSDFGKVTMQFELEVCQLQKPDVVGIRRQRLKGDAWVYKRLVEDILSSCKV

[21] = biological target: Myosin light chain kinase 2, skeletal/cardiac muscle (Homo sapiens) (UniProt Q9H1R3); conditions: Compound concentration 1000.0 nM
[22] = biological target: Serine/threonine-protein kinase 38 (Homo sapiens) (UniProt Q15208); conditions: Compound concentration 1000.0 nM
[23] = biological target: Mitogen-activated protein kinase 14 (Homo sapiens) (UniProt Q16539); conditions: Compound concentration 1000.0 nM
[24] = biological target: Platelet-derived growth factor receptor beta (Homo sapiens) (UniProt P09619); conditions: Compound concentration 1000.0 nM
[25] = biological target: Phosphorylase b kinase gamma catalytic chain, skeletal muscle/heart isoform (Homo sapiens) (UniProt Q16816); conditions: Compound concentration 1000.0 nM
[26] = biological target: Serine/threonine-protein kinase pim-1 (Homo sapiens) (UniProt P11309); conditions: Compound concentration 1000.0 nM
[27] = biological target: Serine/threonine-protein kinase PknB (Mycobacterium tuberculosis) (UniProt P9WI81); conditions: Compound concentration 1000.0 nM
[28] = biological target: Receptor-interacting serine/threonine-protein kinase 4 (Homo sapiens) (UniProt P57078); conditions: Compound concentration 1000.0 nM
[29] = biological target: Rho-associated protein kinase 2 (Homo sapiens) (UniProt O75116); conditions: Compound concentration 1000.0 nM
[30] = biological target: SNF-related serine/threonine-protein kinase (Homo sapiens) (UniProt Q9NRH2); conditions: Compound concentration 1000.0 nM
[31] = biological target: Tyrosine-protein kinase SYK (Homo sapiens) (UniProt P43405); conditions: Compound concentration 1000.0 nM
[32] = biological target: Dual specificity testis-specific protein kinase 1 (Homo sapiens) (UniProt Q15569); conditions: Compound concentration 1000.0 nM
[33] = biological target: Testis-specific serine/threonine-protein kinase 1 (Homo sapiens) (UniProt Q9BXA7); conditions: Compound concentration 1000.0 nM
[34] = biological target: Dual specificity protein kinase TTK (Homo sapiens) (UniProt P33981); conditions: Compound concentration 1000.0 nM
Chain of Dual specificity protein kinase TTK (Homo sapiens) (P33981 whole entry): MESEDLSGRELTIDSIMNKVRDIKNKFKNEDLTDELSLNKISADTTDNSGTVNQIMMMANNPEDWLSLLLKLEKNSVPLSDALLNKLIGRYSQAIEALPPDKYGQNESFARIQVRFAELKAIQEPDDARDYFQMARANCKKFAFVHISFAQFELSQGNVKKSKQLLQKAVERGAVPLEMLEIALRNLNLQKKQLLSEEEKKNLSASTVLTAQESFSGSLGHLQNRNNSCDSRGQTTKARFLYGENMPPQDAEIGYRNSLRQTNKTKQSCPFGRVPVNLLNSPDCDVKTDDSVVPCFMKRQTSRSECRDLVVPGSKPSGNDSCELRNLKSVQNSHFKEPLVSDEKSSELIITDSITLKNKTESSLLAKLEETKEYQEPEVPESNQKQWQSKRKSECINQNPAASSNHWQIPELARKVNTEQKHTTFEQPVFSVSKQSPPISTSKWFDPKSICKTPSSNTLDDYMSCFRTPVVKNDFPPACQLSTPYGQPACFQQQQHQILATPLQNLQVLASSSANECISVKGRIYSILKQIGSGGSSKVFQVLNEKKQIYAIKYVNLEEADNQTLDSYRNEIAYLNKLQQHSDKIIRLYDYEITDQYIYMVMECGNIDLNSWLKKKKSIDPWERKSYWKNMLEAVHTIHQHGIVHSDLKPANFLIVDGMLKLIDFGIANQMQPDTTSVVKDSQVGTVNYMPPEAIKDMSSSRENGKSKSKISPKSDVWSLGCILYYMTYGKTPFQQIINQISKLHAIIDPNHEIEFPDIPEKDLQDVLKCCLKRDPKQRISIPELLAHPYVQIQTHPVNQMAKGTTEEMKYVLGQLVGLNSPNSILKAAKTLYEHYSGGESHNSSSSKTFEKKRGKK

[35] = biological target: Non-receptor tyrosine-protein kinase TYK2 (Homo sapiens) (UniProt P29597); conditions: Compound concentration 1000.0 nM
[36] = biological target: Vascular endothelial growth factor receptor 2 (Homo sapiens) (UniProt P35968); conditions: Compound concentration 1000.0 nM
[37] = biological target: T1, 5-hydroxytryptamine receptor 1A (Homo sapiens) (UniProt P08908); conditions: Compound concentration 10.0 uM
T1 sequence (whole entry): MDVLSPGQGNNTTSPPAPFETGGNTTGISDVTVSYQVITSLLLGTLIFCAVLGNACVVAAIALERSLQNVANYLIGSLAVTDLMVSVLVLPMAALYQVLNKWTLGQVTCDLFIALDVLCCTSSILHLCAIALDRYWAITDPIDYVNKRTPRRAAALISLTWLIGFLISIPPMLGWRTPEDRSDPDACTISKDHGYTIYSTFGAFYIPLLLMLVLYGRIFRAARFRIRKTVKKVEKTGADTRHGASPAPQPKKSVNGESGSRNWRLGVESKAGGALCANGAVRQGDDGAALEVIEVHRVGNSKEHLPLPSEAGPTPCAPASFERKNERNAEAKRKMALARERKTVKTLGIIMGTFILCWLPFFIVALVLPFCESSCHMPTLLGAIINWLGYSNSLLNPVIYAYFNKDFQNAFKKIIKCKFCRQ

[38] = biological target: D(1A) dopamine receptor (Homo sapiens) (UniProt P21728); conditions: Compound concentration 10.0 uM

Row | SMILES | inhibition [1] [%] | inhibition at 10 µM [2] | inhibition [3] [%] | inhibition [4] [%] | residual activity [5] [%] | residual activity [6] [%] | residual activity [7] [%] | residual activity [8] [%] | residual activity [9] [%] | residual activity [10] [%] | residual activity [11] [%] | residual activity [12] [%] | residual activity [13] [%] | residual activity [14] [%] | residual activity [15] [%] | residual activity [16] [%] | residual activity [17] [%] | residual activity [18] [%] | residual activity [19] [%] | residual activity [20] [%] | further results
1 | CNC(=O)Nc1ccc2c(c1)CC[C@@]21OC(=O)N(CC(=O)N(Cc2ccc(F)cc2)[C@@H](C)C(F)(F)F)C1=O [A-485] | 25 | 2% (not active) | -4 | -1 | 100 | 72 | 87 | 95 | 100 | 87 | 95 | 64 | 79 | 80 | 60 | 76 | 94 | 100 | 100 | 91 | residual activity [21]: 84%; residual activity [22]: 100%; residual activity [23]: 100%; residual activity [24]: 100%; residual activity [25]: 100%; residual activity [26]: 100%; residual activity [27]: 83%; residual activity [28]: 56%; residual activity [29]: 96%; residual activity [30]: 96%; residual activity [31]: 70%; residual activity [32]: 73%; residual activity [33]: 84%; residual activity [34]: 100%; residual activity [35]: 91%; residual activity [36]: 83%; inhibition [37]: 6.87%; inhibition [38]: 9.97%
2 | CNC(=O)Nc1ccc2c(c1)[C@@]1(CC2)OC(=O)N(CC(=O)N(Cc2ccc(F)cc2)[C@@H](C)C(F)(F)F)C1=O [A-486] | 22 | -5% (not active) | 41 | -1 | 88 | 78 | 90 | 100 | 100 | 100 | 100 | 85 | 91 | 91 | 85 | 81 | 95 | 83 | 95 | 100 | residual activity [21]: 77%; residual activity [22]: 79%; residual activity [23]: 100%; residual activity [24]: 87%; residual activity [25]: 100%; residual activity [26]: 100%; residual activity [27]: 84%; residual activity [28]: 52%; residual activity [29]: 95%; residual activity [30]: 100%; residual activity [31]: 82%; residual activity [32]: 100%; residual activity [33]: 100%; residual activity [34]: 100%; residual activity [35]: 92%; residual activity [36]: 84%; inhibition [37]: 4.17%; inhibition [38]: 0.29%
